Our source for the Luciferase stimulation values is EP0863214A2, “Reporter gene construct for measuring G protein coupled receptor activation” (SMITHKLINE BEECHAM CORPORATION, priority 1997, dated 1998).

Ends that are not written are not given here.

This assay relates to HEK 293 cells transfected with MREII VIPII. The format is cell-based, Human. The settings on record: wild-type HEK 293 cells or HEK 293 cells expressing the porcine CGRP receptor; endogenous receptors or direct activation of adenylyl cyclase; in the presence of IBMX. As to the method: Day 1: HEK293 cells at a density of 4.5x10^6/T-75 flask in Earl's Minimum Essential Medium (EMEM) supplemented with 10% fetal bovine serum and 2 mM glutamine were incubated overnight in a humidified tissue culture incubator at 37°C, 5% CO2.
Day 2: MREII VIPII DNA (7.8 µg) was mixed with 780 µl of serum free EMEM to produce Solution A. Lipofectamine (23.1 µl; Gibco-BRL) was mixed with 780 µl of serum EMEM to produce Solution B. Solutions A and B were then mixed gently and incubate at room temperature for 15-45 minutes. Cells were then rinsed with 15 ml of serum free EMEM and 6.25 ml of serum free EMEM was added. Combined solutions (A + B) were overlayed and the flask was placed in a tissue culture incubator for 5 hours. Media was replaced with 15 ml of EMEM/10% serum/ 2 mM glutamine and stored in the tissue culture incubator.
Day 3: Ninety-six well tissue culture plates were treated with Matrigel (50 µl/well diluted 1/50 with phosphate buffered saline (PBS); Collaborative Biomedical Products) for > 1 hour. Matrigel solution was then removed and the plate was transfected with HEK 293 cells at a cell density of 2.6 x 10^4/well in 100 µl of supplemented EMEM. […] Cells were then incubated for 6 hours in a humidified tissue culture incubator at 37°C, 5% CO2. Media was removed and cells were washed with 50 µl of PBS.
Cell lysis solution (50 µl; Promega) supplemented with AEBSF (0.24 mg/ml), pepstatin, leupeptin, and aprotinin (5µg/ml each), and DNAse I (50 µg/ml) was added and extracts were frozen. Ten microliters of thawed extract were added to assay plates along with 50 µl of reconstituted luciferase assay reagent (Promega) using a luminometer autoinjector (Dynex MLX) and samples were read. Luciferase activity is expressed as a fold enhancement over the basal luciferase activity expressed in cells that have not been challenged with agonist, IBMX, TPA, or forskolin.
Take `CCCCC[C@H](O)/C=C/[C@H]1[C@H](O)CC(=O)[C@@H]1C/C=C\CCCC(=O)O` [PGE2]: the Luciferase stimulation result is recorded as “Luciferase stimulation was observed”.
In the case of `Nc1ncnc2c1ncn2[C@@H]1O[C@H](COP(=O)(O)OP(=O)(O)OP(=O)(O)O)[C@@H](O)[C@H]1O` [ATP], the Luciferase stimulation entry was “did not stimulate luciferase induction”.
Under “calcitonin (CGNLSTCMLGTYTQDFNKFHTFPQTAIGVGAP; not fully specified (C-terminus, bridges); ends and bridges not checked; UniProt P01258 85-116, looked up)” stands “Luciferase stimulation was observed”.
As for `C[N+](C)(C)CCOC(N)=O` [carbachol], the entry is “did not stimulate luciferase induction”.
Under “endothelin (CSCSSLMDKECVYFCHLDIIW; not fully specified (bridges); ends and bridges not checked; UniProt P05305 53-73, looked up)” stands “did not stimulate luciferase induction”.
Consider “VIP (HSDAVFTDNYTRLRKQMAVKKYLNSILN; not fully specified (C-terminus); ends and bridges not checked; UniProt P01282 125-152, looked up)”, for which the Luciferase stimulation result was “Luciferase stimulation was observed”.
Under `Nc1ncnc2c1ncn2[C@@H]1O[C@H](CO)[C@@H](O)[C@H]1O` [adenosine] stands “did not stimulate luciferase induction”.
